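Following 48 hours of exposure in 96-well plates, responses at five concentrations were used to interpolate endpoints linearly. At the GI50, growth is halved. The concentration for full growth arrest is given as TGI.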
Assays:
Assay in all cases: DTP human tumour cell line panel, 48 h
SK-MEL-2 melanoma = tested on: SK-MEL-2 melanoma
DU-145 prostate = tested on: DU-145 prostate
TK-10 renal = tested on: TK-10 renal
SR leukemia = tested on: SR leukemia
HCT-15 colon = tested on: HCT-15 colon
786-0 renal = tested on: 786-0 renal
NCI/ADR-RES ovarian = tested on: NCI/ADR-RES ovarian
HL-60(TB) leukemia = tested on: HL-60(TB) leukemia
SNB-75 CNS = tested on: SNB-75 CNS
HT29 colon = tested on: HT29 colon

Row | SMILES | TGI (SK-MEL-2 melanoma) | TGI (DU-145 prostate) | TGI (TK-10 renal) | TGI (SR leukemia) | TGI (HCT-15 colon) | TGI (786-0 renal) | TGI (NCI/ADR-RES ovarian) | TGI (HL-60(TB) leukemia) | TGI (SNB-75 CNS) | TGI (HT29 colon) | GI50 (SK-MEL-2 melanoma) | GI50 (DU-145 prostate) | GI50 (TK-10 renal) | GI50 (SR leukemia) | GI50 (HCT-15 colon) | GI50 (786-0 renal) | GI50 (NCI/ADR-RES ovarian) | GI50 (HL-60(TB) leukemia) | GI50 (SNB-75 CNS) | GI50 (HT29 colon)
1 | Oc1c(N=Nc2ccccc2)c2ccccc2c2ccc3ccccc3c12 | > 100 µM | > 100 µM | > 100 µM | 32.6 µM | > 100 µM | > 100 µM | > 100 µM | > 100 µM | > 100 µM | > 100 µM |  |  |  |  |  |  |  |  |  | 
2 | C=CC(=O)Nc1cccc(C)c1Nc1ncc2cc(-c3c(Cl)c(OC)cc(OC)c3Cl)ccc2n1 | 28.7 µM | > 100 µM | 22.1 µM | > 100 µM | > 100 µM | 10.1 µM | 66.5 µM | 15 µM | 44.9 µM | 67.7 µM | 4.26 µM | 3.63 µM | 3.25 µM | 2.75 µM | 4.21 µM | 2.33 µM | 4.07 µM | 2.13 µM | 2.57 µM | 6.31 µM
3 | OC(CNc1ccnc2cc(Cl)ccc12)CNC1CCCCC1 (stereo not given) | 4.86 µM | 28.2 µM | 13.6 µM | 5.13 µM | 17 µM | 24.8 µM | 53.9 µM | 28.7 µM | 8.31 µM | 12.2 µM | 2.28 µM | 13.9 µM | 3.61 µM | 1.95 µM | 3.78 µM | 11.8 µM | 18 µM | 10.9 µM | 2.1 µM | 3.26 µM
4 | CCOC1C=CCCO1 (stereo not given) | > 100 µM | > 100 µM | > 100 µM | > 100 µM | > 100 µM | > 100 µM | > 100 µM | > 100 µM | > 100 µM | > 100 µM |  |  |  |  |  |  |  |  |  | 
5 | OC(CNC1CCCC1)Cn1c2ccccc2c2ccccc21 (stereo not given) | 68.6 µM | > 100 µM | > 100 µM | > 100 µM | > 100 µM | > 100 µM | > 100 µM | > 100 µM | 26.5 µM | > 100 µM | 25.1 µM | 82.3 µM | 27.5 µM | > 100 µM | 80.5 µM | 36.1 µM | 40.6 µM | > 100 µM | 12.9 µM | > 100 µM
6 | CN1CCn2c(c(Sc3ccc(C(=O)NO)cc3)c3ccccc32)C1=O | 4.1 µM | 12.8 µM | 5.29 µM | > 100 µM | 14.3 µM | 3.64 µM | > 87.1 µM | 32 µM | 2.99 µM | 9.38 µM | 2.01 µM | 2.97 µM | 2.09 µM | 2.65 µM | 2.73 µM | 1.89 µM | 8.82 µM | 3.16 µM | 1.27 µM | 2.92 µM
7 | COCCNC(=O)c1ccc(-c2nc3ccc4[nH]ncc4c3c3c2CCCC3)cc1 | 7.97 µM | > 100 µM | > 100 µM | 6.2 µM | > 100 µM | 16.2 µM | > 100 µM | 7.33 µM | 6.24 µM | > 100 µM | 2.16 µM | 2.12 µM | 1.09 µM | 0.558 µM | 2.67 µM | 2.12 µM | 4.29 µM | 2.43 µM | 2.01 µM | 3.11 µM
8 | COc1cc(/C=C/C(=O)c2c(C)n([O-])c3ccc(Cl)cc3[n+]2=O)cc(OC)c1OC | > 100 µM | > 100 µM | 97.7 µM | > 100 µM | > 100 µM | > 100 µM | > 100 µM | > 100 µM | 40.6 µM | > 100 µM | > 100 µM | 21.7 µM | 26.5 µM | 8.4 µM | > 100 µM | 33.1 µM | 90.9 µM | > 100 µM | 17.3 µM | > 100 µM
9 | COC(=O)c1cc2oc(/C=C3\SC(=S)N(NC(C)=O)C3=O)cc2n1Cc1ccccc1 | > 50 µM | 9.85 µM | 15.5 µM | > 50 µM | 8.56 µM | 18.6 µM | 19.5 µM | 13.8 µM | 25.4 µM | 12.8 µM | 18.5 µM | 1.7 µM | 6.14 µM | 1.11 µM | 1.54 µM | 8.2 µM | 7.77 µM | 2.14 µM | 7.67 µM | 3.47 µM
10 | O=C(CN1C(=O)c2ccccc2C1=O)C(O)CN1C(=O)c2ccccc2C1=O (stereo not given) | > 100 µM | > 100 µM | > 100 µM | > 100 µM | > 100 µM | > 100 µM | > 100 µM | > 100 µM | 39.8 µM | > 100 µM |  |  |  |  |  |  |  |  |  | 
11 | Clc1ccc2c(c1)-c1ccccc1C1=NCCN12 | 3.89 µM | 4.62 µM | 5.51 µM | 4.13 µM | 9.62 µM | 3.52 µM | 4.8 µM | 5.47 µM | 5.42 µM | 3.6 µM | 2.02 µM | 2.02 µM | 1.87 µM | 1.55 µM | 2.71 µM | 1.66 µM | 1.6 µM | 2.43 µM | 1.62 µM | 1.17 µM
12 | N=C(N)c1ccc(-c2ccc(-c3cccs3)s2)nc1 | 4.2 µM | 4.04 µM | 2.33 µM | 5.47 µM | 4.47 µM | 3.3 µM | 14.5 µM | 4.01 µM | 4.52 µM | 3.83 µM | 2.19 µM | 1.8 µM | 1.03 µM | 1.27 µM | 1.93 µM | 1.67 µM | 3.11 µM | 1.78 µM | 1.78 µM | 1.6 µM
13 | O=C(CCCCCCC(=O)Nc1ccc2c(c1)/C(=C/c1ccc[nH]1)C(=O)N2)NO | 7.13 µM | 41.6 µM | 7.78 µM | > 100 µM | > 49.3 µM | 26.5 µM | > 100 µM | > 100 µM | 65.4 µM | 8.51 µM | 0.851 µM | 0.969 µM | 0.795 µM | 0.253 µM | 3.93 µM | 2.37 µM | 3.86 µM | 0.464 µM | 0.194 µM | 0.506 µM
14 | NCCCCN(Cc1nc2ccccc2[nH]1)[C@H]1CCCc2cccnc21 | 45.1 µM | > 100 µM | > 75.3 µM | 24.8 µM | > 100 µM | > 77.1 µM | > 100 µM | 26.7 µM | > 100 µM | 34.1 µM | 16.7 µM | 29.2 µM | 25.3 µM | 4.52 µM | 24.3 µM | 21.2 µM | 26.8 µM | 5.34 µM | 8.53 µM | 6.29 µM
15 | O=C(N/N=C\c1ccc(N(CCCl)CCCl)cc1Cl)c1cccnc1 | 53.3 µM | 59.6 µM | 7.84 µM | 69.6 µM | > 100 µM | 56.6 µM | > 94.3 µM | 36.5 µM | 73.7 µM | > 88.4 µM | 14.3 µM | 16.2 µM | 0.991 µM | 7.23 µM | 29 µM | 15.1 µM | 19.6 µM | 7.5 µM | 20.1 µM | 20.2 µM

From PubChem BioAssay (NCI)
